The text below walks through data of publication PMC10424242, “Macrocyclic Peptidomimetic Plasmepsin X Inhibitors with Potent In Vitro and In Vivo Antimalarial Activity” (Journal of Medicinal Chemistry, 2023).

SMILES strings stand for the structures. “Also recorded” adds a separate entry of the source. Read-outs that look alike come from different tables or passages of the source.

Data set [1] has as its target recombinant P. falciparum PMX (Plasmodium falciparum, UniProt Q8IAS0). Put plainly: Recombinant P. falciparum PMX inhibition assay (fluorogenic substrate Rh2N). The class given is biochemical. As for the experimental part:
The fluorescence of this peptide is quenched by the spatial proximity of the DABCYL/EDANS groups in the uncleaved peptide and is increased upon cleavage at the internal F–I bond. […] Control wells contained no inhibitor, and the plate was blanked against the substrate only in DB. […] All experiments were performed in duplicate.

Data set [2] in a line: Liver microsomal metabolic stability. Format: in vitro ADME, mouse. Here is the method:
Microsomal stability assays are performed as described elsewhere.[41] Test compounds and pooled mouse liver microsomes are incubated in potassium phosphate buffer in the presence of the cofactor NADPH at 37 °C. Reaction mixtures (700 μL) contain a final concentration of 5 μM test compound, 0.05% DMSO, 0.5 mg/mL microsomes, and ∼0.7–0.9 mM NADPH in 100 mM potassium phosphate buffer at pH 7.4. Reactions are terminated by the addition of 100 μL of the reaction mixture to 900 μL of acetonitrile after 0, 5, 15, 30, 45, and 60 min of incubation. Samples were centrifuged, and the resultant supernatant was analyzed by ultra-performance liquid chromatography–tandem mass spectrometry (UPLC-MS/MS). The amount of remaining compound is calculated and compared to the initial amount of test compound (zero time point). Verapamil is used as a positive control, and samples prepared without cofactor NADPH are used as a negative control (0 and 60 min). The in vitro metabolic stability parameters (half-life value (t1/2) and intrinsic clearance value (Clint)) are calculated from the slope of the Ln of concentration remaining vs the time curve.
In general terms: Microsomes from liver hold many membrane-bound enzymes, among them those of drug oxidation.

The nature of data set [3]: Tolerability testing in mice. The class given is in vivo, NMRI female mice. As to conditions: p.os 50 mg/kg up to 24 h, 0–6 score system. As for the experimental part: NMRI female mice (10–12 weeks old, 29–32 g) were obtained from ENVIGO (The Netherlands) and housed prior to treatment under standard conditions (acclimatization period of 1 week, 21–23 °C, 12-h light/dark cycle, relative humidity 45–65%) with unlimited access to food (R70 diet from Lantmännen) and water. The experimental procedures were performed in accordance with the guidelines of the European Community and local laws and policies (Directive 2010/63/EU), and all of the procedures were approved by Food and Veterinary Service, Riga, Latvia. Animals were weighed on the day of the treatment (before treatment) to calculate the required amount of compound for the corresponding dose. For tolerability and PK studies, the mice were dosed via a peroral (PO) bolus administration (volume 10 mL/kg). Toxicity signs were scored 0–2, 5, 10, 15, 30, 60, 120, 240 min, and 24 h after administration using a widely used 0–6 score system.

The nature of data set [4]: Pharmacokinetics in mice (plasma, UPLC/MS/MS). Format: in vivo. As to conditions: female, NMRI, mouse, po, p.os 50 mg/kg. Here is the method:
Animals were weighed on the day of the treatment (before treatment) to calculate the required amount of compound for the corresponding dose. For tolerability and PK studies, the mice were dosed via a peroral (PO) bolus administration (volume 10 mL/kg).
For the pharmacokinetics experiment, blood samples were collected in tubes containing heparin. […] Tubes were centrifuged at +4 °C 10,000g for 3 min. Plasma samples were collected and stored at −20 °C until analysis.
Concentrations of VAD259 in mouse plasma were measured by ultra-performance liquid chromatography–tandem mass spectrometry using Waters Acquity UPLC H-class chromatograph coupled to the Waters Xevo TQ-S micro mass spectrometer using the Waters Acquity UPLC BEH-C18 column (2.1 mm × 50 mm, 1.7 μm). Mobile phase A was 0.1% aqueous formic acid, and mobile phase B was acetonitrile.
The mass spectrometer was operated in positive electrospray ionization mode (ESI+), and data acquisition was performed in multiple reaction monitoring (MRM) modes with ionization parameters as follows: capillary energy of 3.0 kV, cone voltage of 25 V, and collision energy of 20 eV.
Blood plasma samples were processed using plasma protein precipitation. Then, 20 μL of plasma was mixed with 300 μL of acetonitrile/methanol (3:1/v:v) mixture, and the sample was centrifuged at 1000g for 10 min. The supernatant was further diluted 3 times with 0.1% aqueous formic acid and subjected to UPLC/MS/MS analysis.

The next data set deals with P. falciparum schizonts. Put plainly: Washout assay, schizont rupture and new ring formation. Format: cell-based. The settings on record: 20 nM ∼44 h, […] with added RBCs. As for the experimental part: The schizont cultures lacking added RBCs were supplemented with compound C2, which blocks the discharge of exonemes, the parasite secretory organelles in which PMX and SUB1 are stored before egress. The schizonts without added RBCs were sampled for Western blot analysis, while the schizont cultures containing RBCs were examined by microscopy and flow cytometry after a further 4 h in culture to quantify schizont rupture and new ring formation.
Synchronous parasite cultures were cultured from ring to schizont stage (∼44 h) in the presence of DMSO alone (0.04% v/v; control) or macrocycle compounds (20 nM final concentration). Schizonts were isolated by Percoll enrichment (still in the presence of the test compound), then either immediately frozen or further incubated in the absence of the drug but in the presence of C2 (1 μM) for 1 h at 37°C in the absence of added RBCs or for 3.5 h in the presence of added RBCs. The schizonts without added RBCs were then frozen too, and all schizont samples were then thawed into CHAPS–urea extraction buffer, subjected to sodium dodecyl sulfate-polyacrylamide gel electrophoresis (SDS-PAGE), and analyzed by Western blot, probing with antibodies against SUB1 or RAP1. For schizonts cultured in the presence of added RBCs, ring formation was assessed in two ways: cultures were examined microscopically by Giemsa stain of thin films and were also fixed with glutaraldehyde and processed for quantification of ring formation by flow cytometry as described above.

Sequence of recombinant P. falciparum PMX (Q8IAS0 222-573): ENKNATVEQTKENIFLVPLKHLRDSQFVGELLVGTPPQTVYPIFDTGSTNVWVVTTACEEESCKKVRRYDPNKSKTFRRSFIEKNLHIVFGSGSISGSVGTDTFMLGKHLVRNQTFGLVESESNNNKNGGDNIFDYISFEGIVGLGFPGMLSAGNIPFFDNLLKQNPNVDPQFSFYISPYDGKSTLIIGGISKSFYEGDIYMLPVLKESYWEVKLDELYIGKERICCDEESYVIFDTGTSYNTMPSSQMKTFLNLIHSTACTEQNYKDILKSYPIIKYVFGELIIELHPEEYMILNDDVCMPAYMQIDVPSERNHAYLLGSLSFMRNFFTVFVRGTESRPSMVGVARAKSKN

Regarding `CCCN1CCCCCc2cccc(c2)C[C@@H]([C@H](O)CNC(C)(C)c2cccc(OC)c2)NC(=O)c2cccc(c2)C1=O` [7k, (S)-4-((R)-1-Hydroxy-2-((2-(3-methoxyphenyl)propan-2-yl)amino)ethyl)-12-propyl-3,12-diaza-1,6(1,3)-dibenzenacyclotridecaphane-2,13-dione], the IC50 in data set [1] (Table 3, read-out: PMX, nM (as listed in Table 3)) came out at 0.4 ± 0.03 nM. In data set [1] (compared to 7a), the “improvement of PMX inhibitory potency” value was 10 fold. Moreover, the IC50 in data set [1] (recombinant PMX, read-out: PMX, nM (IC50)) is 0.4 ± 0.03 nM. In addition, the “improvement of half-life in the microsomal stability test” value in data set [2] (compared to the acyclic analogue 6a) was determined as 3 fold. Also, the half-life at 1 h, 5 μM in data set [2] (pooled liver microsomes, pH 7.4, mouse liver microsomes, 5 μM) was found to be 16.9 min. The microsomal CLint at 1 h, 5 μM in data set [2] (pooled liver microsomes, pH 7.4, mouse liver microsomes, 5 μM, read-out: microsomal stability CL(int)) turned out to be 81.9 µL/min/mg. For the same molecule, the tolerability entry in data set [3] was “No adverse effects were observed; also recorded: no toxic effect (score 0)”. In data set [4], the exposure AUC(0-t) at 6 h was 218 ng·h/mL, the Cmax at 6 h amounted to 64 ng/mL, the time to peak (Tmax) at 6 h turned out to be 60 min and the half-life at 6 h was 53 min. For the same molecule, the AUC(0-inf) at 6 h in data set [4] (read-out: AUC0-inf_obs) is 222 ng·h/mL. In addition, in the data set on P. falciparum schizonts, the “new ring formation after washout” value is recorded as “minimal rings were produced”.

The half-life is the time needed for the level to fall by half in the phase considered. One may read the AUC(0-t) as exposure summed from dosing to a finite time, without extrapolation to infinity. Higher therefore signals high exposure. For orientation: Cmax means the highest concentration seen after dosing. The Tmax is the time at which the peak concentration occurs.
